Data on one compound can be found in publication PMC9605374 (Marine Drugs, 2022).

What is called IC50 is the point on the concentration scale where inhibition reaches its midpoint. High values mean lower potency, low ones higher potency.

For assay [1], the system named is noncancer cells. The assay can be described thus: MTT assay, mean IC50 in noncancer cell panel. The format is cell-based. Particulars: Homo sapiens, mean over PNT2, RWPE-1, HEK293, MRC-9, 48 h. The source says:
To examine the anticancer potential and selectivity of NB, we used a panel of six human prostate cancer cell lines, harboring different levels of treatment resistance to representatively reflect the heterogeneity of the disease. […] Additionally, four human noncancer cells lines were utilized in order to determine the selectivity of NB towards prostate cancer cells, i.e., prostate noncancer PNT2 and RWPE-1 cells, human embryonic kidney HEK 293T cells, and human fibroblasts MRC-9. The different cell lines were treated with NB and the cell viability was examined using MTT assay (Figure 1). The mean IC50 of NB and docetaxel (used as a reference substance) in noncancerous cell lines was divided by the mean IC50 in the prostate cancer cell lines to determine the selectivity index (SI).
The MTT assay was used to monitor the effect of the drugs on cell viability in terms of metabolic activity, as previously reported. First, preincubation of the cells in 96-well plates (6 × 10^3 cells/well in 100 μL/well) was performed overnight in the correspondent culture medium. Next, the medium was exchanged for fresh medium containing the investigated compounds or a vehicle (100 μL/well). […] Finally, 50 μL/well of DMSO were added to solve the formed formazan crystals produced by the metabolic active cells and Infinite F200PRO reader (TECAN, Männedorf, Switzerland) was used to measure the cell viability. […]

Assay [2] deals with 22Rv1 cells. In words: Trypan blue exclusion assay. The format is cell-based. Particulars: Homo sapiens, 22Rv1, trypan blue exclusion. The procedure: Figure 2 Trypan blue exclusion assay. 22Rv1 cells were treated for 48 h (A) or 168 h (B) with the indicated concentrations of NB. The cells were harvested, stained, and counted with an automatic Vi-CELL cell counter device. Number of replicates n = 3.
The trypan blue exclusion assay was used to monitor the effect of the drugs on cell viability regarding cellular membrane integrity and was performed as described before. In brief, cells (2 × 10^5 cells/well) were seeded in 6-well plates (1 mL/well) and incubated overnight. Next, the media was substituted with fresh media (1 mL/well) containing drugs at indicated concentrations. Cells were treated for 48 h, harvested by trypsination, and stained with trypan blue. The automatic Beckman Coulter Vi-CELL (Beckman Coulter, Krefeld, Germany) was used to count trypan blue-positive and -negative cells. Trypan blue-negative cells were postulated to have an intact cellular membrane (i.e., alive cells), whereas trypan blue-positive cells were assumed to have damaged cellular membrane (i.e., dead cells).

Assay [3] concerns caspase-3 in PC3-DR cells. The assay can be described thus: Western blotting, caspase-3 cleavage. Type of assay: cell-based, human. Particulars: 48 h. The protocol: Number of replicates n = 3. […] Viability was measured using an MTT assay. Number of replicates n = 3.
It is important to note that a reduction in p-gp activity could be conditioned by p-gp degradation or cell death-related processes. Consequently, using a Western blotting analysis, we measured p-gp expressional levels in the treated PC3-DR cells. […] Thus, the observed effect on p-gp activity seems to be exclusively related to the interaction of NB with p-gp rather than result from any cell death-related events.
The Western blot assay was executed as previously described: 1 × 10^6 cells were seeded in Petri dishes (ø 6 cm, 5 mL/dish) and incubated overnight. On the next day, the cells were treated with the compounds in fresh culture media (5 mL/dish) for the indicated time. Next, cells were harvested with a cell scraper and lysed in lysis buffer including protease and phosphatase inhibitors cocktail (Roche, Mannheim, Germany). Cell debris were removed from the protein lysates via centrifugation. Afterwards, the cell-free protein mixtures were separated in gradient ready-made Mini-PROTEAN® TGX Stain-Free^TM gels (Bio-Rad, Hercules, CA, USA) using SDS-PAGE (sodium dodecylsulfate polyacrylamide gel electrophoresis). Then, the proteins were blotted onto ø 0.2 µm pore PVDF membrane. […] The signals were detected using the ECL chemiluminescence system (Thermo Scientific, Rockford, IL, USA).
A general note: Immunoblotting shows a protein as a band on a membrane.

As for `COc1ccc(C2SSC34CC5(O)C(Cl)C=CC(O)C5ON3C(=O)C2N(C)C4=O)c(O)c1OC` (stereo not shown) [NB, N-methylpretrichodermamide B], the IC50 in assay [1] is 15500 nM; in assay [2] (48 h) it was 129 ± 62 nM; in assay [2] (168 h), 276 ± 58 nM. Also, the “concentration at which cleavage of caspase-3 was detected” value in assay [3] turned out to be 6 µM.
